Data on four molecules can be found in US7662853B2, “Monoacetyldiacylglycerol derivative for the treatment of sepsis” (priority 2004, dated 2010).

One assay deals with T-cells. The assay is described as follows: T-cell proliferation (3H-thymidine incorporation, SI). The format is cell-based, C57BL/6 mice. The conditions noted are these: 1 μg/ml, 7th day, CPM in sample/CPM in control. An excerpt:
Splenocytes were collected from C57BL/6 mice (provided from Asan Institute for Life Sciences Animal Lab., Seoul, Korea) spleens. Then, single cell suspensions were obtained by repeated aspiration and flushing. Red blood cells were removed using ammonium chloride and then passed through nylon wool to remove debris and clumps. T-cells were purified using magnetic bead (MACS bead, Miltenyi Biotec, bergich gladbach, Germany) containing anti-goat IgG MACS bead, Miltenyi Biotec, bergich gladbach, Germany) or anti-mouse CD4 (MACS bead, Miltenyi Biotec, bergich gladbach, Germany) or anti-mouse CD8 antibody (MACS bead, Miltenyi Biotec, bergich gladbach, Germany) (Turner and Dockrell (1996) Immunology, 87: 339-342).
T cell suspensions were suspended in Isocove's modified Dulbecco's medium (IMDM, Gibco, Grand Island, N.Y.) supplemented with 10% fetal bovine serum (referred as ‘FBS’ hereinafter) (Gibco, Grand Island, N.Y.). […] On the 6th day, cells were incubated with 1 μCi ^3H-thymidine/well for 24 hours. On the 7th day, the cells were harvested and the […] (referred as ‘SI’ hereinafter) was calculated by the following Mathematical Formula 1. SI=^3H-thymidine absorbed by wells of experimental group (CPM in sample)/^3H-thymidine absorbed by wells of control group (CPM in control) [Mathematical Formula 1]

The next assay deals with Monocytes. The assay is described as follows: Monocytes proliferation (3H-thymidine incorporation, SI). Type of assay: cell-based. The following applies: human monocytes, 1 μg/ml, 7th day. The protocol:
Monocytes were isolated from human whole blood using Histopaque 1077. And then, monocytes (5×10^6 cells/ml) were allowed to adhere to tissue culture flask for 3 hours in a 5% CO2 incubator. After 3 hours, non-adherent cells were removed and adherent cells were placed in 96-well plates in RPMI 1640 medium (GIBCO, Grand Island, N.Y.) supplemented with 10% FBS. 5×10^4 viable cells per well were cultured in 96-well plates, with 1 μg/ml of Compound 1˜5. On the 6th day, cells were incubated with 1 μCi ^3H-thymidine/well for 24 hours. On the 7th day, the cells were harvested and the incorporation of ^3H-thymidine was measured. Si was calculated by the above mentioned formula 1.

Turning to `CCCCCCCC/C=C\CCCCCCCC(=O)OCC(COC(C)=O)OC(=O)CCCCCCCCCCCCCCC` (centres unmarked) [Compound 1, 1-oleoyl-2-2palmitoyl-3-acetylglycerol], in the assay with T-cells, the SI came to 2.01 ± 0.43. Also, the “SI (±S.E)” value in the assay on Monocytes was found to be 9.97 ± 0.10.

Consider `CCCCCCCC/C=C\CCCCCCCC(=O)OC(COC(C)=O)COC(=O)CCCCCCCCCCCCCCC` (centres unmarked) [Compound 2, 1-palmitoyl-2-oleoyl-3-acetylglycerol], for which the SI with T-cells turned out to be 2.03 ± 0.54. Besides, in the assay with Monocytes, the “SI (±S.E)” value turned out to be 10.42 ± 0.15.

As to `CC/C=C\C/C=C\C/C=C\CCCCCCCC(=O)OC(COC(C)=O)COC(=O)CCCCCCCCCCCCCCC` (centres unmarked) [Compound 4, 1-palmitoyl-2-linolenoyl-3-acetylglycerol], the SI with T-cells worked out at 1.98 ± 0.26. Further, the “SI (±S.E)” value in the assay on Monocytes turned out to be 10.21 ± 0.18.

Turning to `CCCCC/C=C\C/C=C\C/C=C\C/C=C\CCCC(=O)OC(COC(C)=O)COC(=O)CCCCCCCCCCCCCCC` (centres unmarked) [Compound 5, 1-palmitoyl-2-arachidonoyl-3-acetylglycerol], the SI in the assay with T-cells turned out to be 2.02 ± 0.38. In addition, the “SI (±S.E)” value in the assay on Monocytes is on record as 9.75 ± 0.09.
